We go through seven compounds from patent publication US8163756B2 (priority 2004, dated 2012).

Common to all, as to assay type: biochemical
Test [1] addresses T1, phosphorylated p-38-alpha kinase (Homo sapiens, UniProt Q16539). Description: P-38 alpha kinase assay P1 (coupled spectrophotometric, 2 h pre-incubation).
Test [2] deals with T2, B-Raf(V599E) kinase (Homo sapiens, UniProt P15056, V600E). The experiment in a line: B-Raf(V599E) kinase assay B2 (construct 2 at 2 nM, 1 h pre-incubation). The protocol: (§1) The test compounds were incubated with the reaction mixtureat 30° C. for 2 h. […] The reaction rate was calculated using the […] time frame. […] IC50 values were calculated from a series of percent inhibition values determined at a range of inhibitor concentrations using software routines as implemented in the GraphPad Prism software package.
Same as assay B1 except that (1) construct 2 was employed at a nominal concentration of 2 nM (2) the reaction was pre-incubated at 30° C. for 1 h prior to initiation with ATP (3) a reading time frame of 0.5 h to 1.5 h.
Target sequence in this assay (P15056 433-726 V600E): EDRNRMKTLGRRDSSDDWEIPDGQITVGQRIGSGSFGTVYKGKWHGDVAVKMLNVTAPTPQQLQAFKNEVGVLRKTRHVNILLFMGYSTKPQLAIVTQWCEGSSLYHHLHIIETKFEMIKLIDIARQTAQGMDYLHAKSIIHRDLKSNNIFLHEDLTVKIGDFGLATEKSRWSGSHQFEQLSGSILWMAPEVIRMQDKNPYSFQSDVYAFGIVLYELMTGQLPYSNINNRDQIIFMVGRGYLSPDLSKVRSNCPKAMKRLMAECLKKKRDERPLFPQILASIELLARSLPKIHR

The target in test [3] is T3, Abl kinase (Homo sapiens, UniProt P00519).
T3 sequence (P00519 229-512): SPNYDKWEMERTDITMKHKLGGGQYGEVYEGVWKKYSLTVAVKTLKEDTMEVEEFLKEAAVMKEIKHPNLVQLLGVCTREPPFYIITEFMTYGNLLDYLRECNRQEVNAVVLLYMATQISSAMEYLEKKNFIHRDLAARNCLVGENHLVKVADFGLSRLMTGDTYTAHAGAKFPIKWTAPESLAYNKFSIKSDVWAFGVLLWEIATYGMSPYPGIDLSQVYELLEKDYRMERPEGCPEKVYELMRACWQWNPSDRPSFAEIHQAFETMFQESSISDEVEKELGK
The experiment in a line: Abl kinase assay A2 (as A1, 1.1 nM enzyme, 2 h pre-incubation, 0.5 mM ATP). On the procedure:
(§2) IC50 values were calculated from a series of percent inhibition values determined at a range of inhibitor concentrations using software routines as implemented in the GraphPad Prism software package.

In test [4] the target is T2, B-Raf(V599E) kinase. The experiment in a line: B-Raf(V599E) kinase assay B1 (construct 1, MEK1 substrate, coupled spectrophotometric). The protocol:
as §1
Target sequence in this assay (P15056 with tags, fused parts or gaps V600E): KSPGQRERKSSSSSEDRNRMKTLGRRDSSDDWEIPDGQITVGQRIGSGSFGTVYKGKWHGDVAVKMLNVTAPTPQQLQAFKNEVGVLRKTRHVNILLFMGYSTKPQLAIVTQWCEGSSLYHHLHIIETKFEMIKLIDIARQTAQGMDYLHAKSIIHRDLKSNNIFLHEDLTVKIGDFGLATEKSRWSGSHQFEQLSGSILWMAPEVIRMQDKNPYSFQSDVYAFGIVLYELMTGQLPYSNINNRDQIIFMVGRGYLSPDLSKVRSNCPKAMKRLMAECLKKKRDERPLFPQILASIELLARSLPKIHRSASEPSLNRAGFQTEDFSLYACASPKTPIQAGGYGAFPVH

Test [5] addresses T4, KDR kinase (Homo sapiens, UniProt P35968, DEL940-989/E990V). The experiment in a line: KDR kinase assay K2 (as K1, 2.1 nM enzyme, 2 h pre-incubation, 1.0 mM ATP). As to conditions: Method K2. On the procedure: as §2
For test [6], the target named is T3, Abl kinase. Description: Abl kinase assay A1 (pyruvate kinase/lactate dehydrogenase coupled, spectrophotometric). As to conditions: Method A1. The protocol:
as §2

Test [7] addresses T1, phosphorylated p-38-alpha kinase. The experiment in a line: P-38 alpha kinase assay P2 (as P1, not pre-incubated). As to conditions: method P2 (not pre-incubated). The protocol:
Same as assay P1 except that (1) the reaction was not pre-incubated.

Test [8] has as its target T4, KDR kinase. Description: KDR kinase assay K1 (pyruvate kinase/lactate dehydrogenase coupled, spectrophotometric). As to conditions: Method K1; read-out: KDR Data (IC50). On the procedure:
as §2

Where [9] appears, read: method P1 (2 h pre-incubation), read-out: P-38 Data.
Where [10] appears, read: Method A2, read-out: Abl Data (IC50).

pIC50: −log10 of the molar value. Structures can show the parent of a compound that is named as a salt.

T1 sequence (Q16539 1-360 isoform Q16539-2): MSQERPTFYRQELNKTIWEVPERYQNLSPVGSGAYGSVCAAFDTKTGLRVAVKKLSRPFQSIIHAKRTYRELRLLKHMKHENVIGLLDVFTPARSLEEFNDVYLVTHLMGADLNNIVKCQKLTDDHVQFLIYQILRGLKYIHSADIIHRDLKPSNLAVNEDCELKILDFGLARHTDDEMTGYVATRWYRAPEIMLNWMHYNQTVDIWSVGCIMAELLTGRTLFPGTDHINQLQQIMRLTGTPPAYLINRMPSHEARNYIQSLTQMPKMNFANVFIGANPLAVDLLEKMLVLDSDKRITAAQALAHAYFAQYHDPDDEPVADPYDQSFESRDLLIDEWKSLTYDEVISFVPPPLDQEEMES
T4 sequence (P35968 with tags, fused parts or gaps DEL940-989/E990V): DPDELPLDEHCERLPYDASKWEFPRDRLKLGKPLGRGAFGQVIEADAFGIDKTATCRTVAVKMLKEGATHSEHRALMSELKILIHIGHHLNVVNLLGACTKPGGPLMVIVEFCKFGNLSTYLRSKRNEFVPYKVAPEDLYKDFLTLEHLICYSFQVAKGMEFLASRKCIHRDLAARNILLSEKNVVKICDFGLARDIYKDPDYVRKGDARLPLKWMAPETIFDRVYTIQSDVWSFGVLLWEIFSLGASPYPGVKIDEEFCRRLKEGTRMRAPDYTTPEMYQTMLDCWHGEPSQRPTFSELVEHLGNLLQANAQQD

For the compound `CC(C)(C)c1cc(NC(=O)Nc2cccc(Cl)c2Cl)n(-c2ccc3nc[nH]c(=O)c3c2)n1` [Example 195, 1-(3-t-butyl-1-(4-oxo-3,4-dihydroquinazolin-6-yl)-1H-pyrazol-5-yl)-3-(2,3-dichlorophenyl)urea], the pIC50 is 7.34 in test [1] (setting [9]), 6.53 against B-Raf(V599E) kinase [2] and 6.04 on Abl kinase [3] (setting [10]).

For `CC(C)(C)c1cc(NC(=O)Nc2cccc(Cl)c2Cl)n(-c2ccc3[nH]ncc3c2)n1` [Example 121, 1-(3-t-butyl-1-(1H-indazol-5-yl)-1H-pyrazol-5-yl)-3-(2,3-dichlorophenyl)urea], the pIC50 in test [1] (setting [9]) was 7.40; against B-Raf(V599E) kinase [2], 6.98; at Abl kinase [3] (setting [10]) it was 6.00.

Turning to `CC(C)(C)c1cc(NC(=O)Nc2cccc(Br)c2)n(-c2cccc(C#N)c2)n1` [Example 5, 1-(3-t-butyl-1-(3-cyanophenyl)-1H-pyrazol-5-yl)-3-(3-bromophenyl)urea], the pIC50 is 7.06 against B-Raf(V599E) kinase [4], 6.07 on KDR kinase [5] (read-out: KDR Data (IC50)), 5.70 at Abl kinase [6] (read-out: Abl Data (IC50)) and 7.42 in test [7].

Consider `Cn1c(=O)c(-c2cccc(NC(=O)Nc3cc(C(C)(C)C)nn3-c3ccc4c(c3)CCN4S(C)(=O)=O)c2)cc2cncnc21` [Example 197, 1-(3-t-butyl-1-(1-(methylsulfonyl)indolin-5-yl)-1H-pyrazol-5-yl)-3-(3-(8-methyl-7-oxo-7,8-dihydropyrido[2,3-d]pyrimidin-6-yl)phenyl)urea], for which the figures for the pIC50 (in test [1] (setting [9]); against B-Raf(V599E) kinase [2]; at Abl kinase [3] (setting [10])) were 7.55, 7.57 and 7.92, respectively.

As to `CC(C)(C)c1cc(NC(=O)Nc2cccc(Oc3cccnc3)c2)n(-c2cc(CC(N)=O)c3ccccc3c2)n1` [Example 86, 1-(1-(4-(2-amino-2-oxoethyl)naphthalen-2-yl)-3-t-butyl-1H-pyrazol-5-yl)-3-(3-(pyridin-3-yloxy)phenyl)urea hydrochloride], the pIC50 in test [1] was 7.62; against B-Raf(V599E) kinase [2], 6.75; at Abl kinase [3], 9.00.

Take `CC(C)(C)c1cc(NC(=O)Nc2cccc(Cl)c2)n(-c2cccc(C#N)c2)n1` [Example 8, 1-(3-t-butyl-1-(3-cyanophenyl)-1H-pyrazol-5-yl)-3-(3-chlorophenyl)urea]: the inhibition at 10 µM at KDR kinase [5] (@ 10 μM, read-out: KDR Data (percent inhibition)) was found to be 96%; at Abl kinase [6] (@ 10 μM, read-out: Abl Data (percent inhibition)), 81%. The compound further gave a pIC50 in test [7] of 7.60.

As for `CC(C)(C)c1cc(NC(=O)Nc2cccc(Oc3cccnc3)c2)n(-c2ccc3c(c2)CC(C(=O)O)NC3)n1` (stereo not shown) [Example 189, 6-(3-t-butyl-5-(3-(3-(pyridin-3-yloxy)phenyl)ureido)-1H-pyrazol-1-yl)-1,2,3,4-tetrahydroisoquinoline-3-carboxylic acid], the pIC50 at KDR kinase [8] was 7.64; on B-Raf(V599E) kinase [2], 6.04; on Abl kinase [3] (setting [10]), 8.52.

Broadly, the inhibition is the relative decrease from the control value, in per cent.
